“Also recorded” adds a separate entry of the source. Counter-ions that a name gives are not always drawn. Like-named read-outs stand apart in the source and are kept apart here.
Tests used:
[1] = tested on: convulsive mice induce by MES; experiment: MES (maximum electroshock) induced convulsion model, oral perfusion; format: in vivo, KM mice; conditions: for efficacy against MES compared with RTG / ED50: mice; for ED50: Mus musculus, 0.5 h, oral perfusion, MES 30 mins after administration, read-out: ED50 (50% effective dose); for protective effect on convulsive mice induce by MES: orally administered
Source text: YLS-9A model physiological pharmaceutical electronic stimulator was used in the experiment to induce convulsion of mice, and specific parameters were set as follows: configuration 8, stimulating voltage: 160V, period of stimulation: 5.4 sec. Healthy KM mice (SPF level, male, body weight: 18 to 22 g) were selected for the experiment. After the ear tip of the mice was sufficiently wetted with physiological saline, the mice was electrically stimulated once with ear clip electrode, and tonic hind-limb seizure was deemed as indication of convulsion. The mice were screened one day before the experiment to weed out the dead mice and the ones without generalized tonic seizure. The qualified mice were caged randomly with access to water at liberty. Before the experiment started, the mice were fasted for 8 h.
The compounds to be tested were freshly formulated on the day of experiment. RTG hydrochloride was dissolved with ultrapure water to obtain a solution with desired concentration. K41.HCl and K43.HCl were formulated with 5% DMSO+95% of 1% Tween80, that is, a proper amount of the compound to be tested was weighted and, first, sufficiently dissolved in 5% DMSO, and then added with a desire volume of 1% Tween80 to be sufficiently suspended to form a suspension with a certain drug concentration. The mice screened one day before were randomly grouped with each group having 10 mice, marked, weighted and then administered with the compound to be tested or solvent (5% DMSO+95% (1% Tween 80)) by oral perfusion with administered volume of 0.2 ml/10 g. The dose range for each compound was 1 to 56 mg/kg for RTG, 1 to 40 mg/kg for K41.HCl, and 0.5 to 4 mg/kg for K43.HCl. 30 mins after administration, MES experiment was performed and the experimental parameters were the same as the above. The number of mice with generalized tonic-clonic convulsion in each group was recorded, the protection rate of each of the compounds to be tested on convulsive mice induce by MES was calculated and dose-response curve for each compound was plotted. The dose-response curve for each compound was obtained according to the analysis of Graphpad Prism 5 software, as shown in FIG. 3.

[2] = Pharmacokinetics and distribution in brain tissue in mice; format: in vivo, ICR mice; conditions: for Kp: brain/plasma, read-out: AUC0-t ratio (brain/plasma); for Kp / Cmax / Tmax / half-life / MRT inf / AUC(0-inf) / AUC0-t / clearance / Vd / AUC0-∞: mice; for MRT inf: read-out: MRT0-∞; for Vd: read-out: Vss; for bioavailability: oral, ICR mice, intragastric perfusion 5 mg/kg vs intravenous 2 mg/kg, read-out: F (oral bioavailability)
Experimental: K43.HCl was formulated to a 0.5 mg/ml solution for intragastric perfusion by using 5% DMSO/5% Tween80/[…] physiological saline; to a 0.2 mg/ml solution for intravenous injection by diluting the above solution for intragastric perfusion with physical saline containing 1% Tween 80.
84 healthy ICR mice (male, body weight, 18-20 g) were fasted for 8 h with access to water at liberty before the experiment. The mice were fed at the same time 2 h after administration of the compound.
After administration by intragastric perfusion, mice were sacrificed by cutting abdominal aorta at the time points set as the above with 3 mice for each time point. 0.5 mL of whole blood was collected for each animal, placed into a heparinized test tube and subjected to centrifugation at 11000 rpm for 5 min to separate plasma, which was then cryopreserved in a −20° C. refrigerator. After the animal was sacrificed, its whole brain was collected, washed with ice-cooled physiological saline to remove residual blood, absorbed to dryness, labeled and cryopreserved in a −20° C. refrigerator. After administration by intravenous injection, 0.5 mL of venous blood was collected from venous plexus behind eyeball, placed into a heparinized test tube and subjected to centrifugation at 11000 rpm for 5 min to separate plasma, which was then cryopreserved in a −20° C. refrigerator. The concentration of each compound in plasma and brain tissue was determined by LC-MS/MS.
Pharmacokinetic parameters after administration were calculated according to the obtained data of plasma concentration, using the non-compartmental model of Phoenix 1.3 software (Pharsight Co., USA).

[3] = tested on: motor coordination ability of mice; experiment: Rotarod experiment, motor coordination ability (acute neurotoxicity); format: in vivo, KM mice; conditions: for P.I (Protective index)=TD50/ED50: TD50 Rotarod / ED50 MES
Experimental: YLS-4C Rotarod system was used in the experiment, wherein the diameter of the rod was 3 cm and the rotate speed was set at 6 rpm. Healthy KM mice (SPF level) were selected, wherein male and female were equal, the body weight was 18 to 22 g. One day before experiment, the mice were place on the rotarod for training and screening. The tail tip of mice was held to make them creep on the rotarod during the training. […] The mice that jumped on the rotarod or griped the rotarod were weed out. In addition, three time periods were set with 1 min for each. […] The qualified mice were randomly caged according to the gender, and allowed to eat and drink freely.
On the day of the experiment, each compound to be tested was freshly formulated by the same method as described in MES experiment. If the compound was not sufficiently suspended, the suspension was further mixed by ultrasonication for 20 min so as to make the compound sufficiently suspended. […] 30 mins after administration, Rotarod experiment was performed and the experiment parameters were the same as the above. The number of mice that fell off from the rorarod was recorded, and the influence of each compound on motor coordination ability of mice was analyzed. The curve for dose of each compound verse motor deficit (percentage) of mice for each compound was obtained according to the analysis of Graphpad Prism 5 software and was shown in FIG. 4.

[4] = male, ICR, mouse, po, intragastric perfusion 5 mg/kg
[5] = male, ICR, mouse, po, intragastric perfusion 5 mg/kg, brain
[6] = male, ICR, mouse, po, intragastric perfusion 5 mg/kg, plasma
[7] = male, ICR, mouse, po, intragastric perfusion 5 mg/kg, plasma, read-out: AUC0-t
[8] = male, ICR, mouse, intravenous injection 2 mg/kg, plasma
[9] = male, ICR, mouse, intravenous injection 2 mg/kg, plasma, read-out: AUC0-t
[10] = intragastric perfusion 5 mg/kg, brain

Row | Structure (SMILES) | Kp [2, 4] | neurotoxicity compared with RTG [3] | ED50 [1] | protective effect on convulsive mice induce by MES [1] | Cmax [2, 5] | Tmax [2, 5] | half-life [2, 5] | MRT inf [2, 5] | AUC(0-inf) [2, 6] | Cmax [2, 6] | Tmax [2, 6] | half-life [2, 6] | AUC0-t [2, 7] | MRT inf [2, 6] | AUC(0-inf) [2, 8] | clearance [2, 8] | half-life [2, 8] | AUC0-t [2, 9] | MRT inf [2, 8] | Vd [2, 8] | further results
1 | C#CCN(Cc1ccc(F)cc1)c1cc(C)c(NC(=O)OC)c(C)c1 [Compound K43, methyl 4-(N-parafluorobenzyl-N-propargyl-amino)-2,6-dimethylphenylaminoformate] | ≥ 7 | weaker neurotoxicity than RTG | – | – | – | – | – | – | – | – | – | – | – | – | – | – | – | – | – | – | efficacy against MES compared with RTG [1]: higher than that of RTG; also recorded: superior to that of RTG
2 | C#CCN(Cc1ccc(F)cc1)c1ccc(NC(=O)OC)c(C)c1 [K41•HCl] | 2.6 | weaker neurotoxicity than RTG | 4.8 mg/kg | dose dependent protective effect | 1470 ng/g | 15 min | 37.8 min | 66 min | 654 ng·h/mL | 606 ng/mL | 15 min | 38.4 min | 646 ng·h/mL | 62.4 min | 294 ng·h/mL | 114 mL/min/kg | 29.4 min | 281 ng·h/mL | 27 min | 3.04 L/kg | efficacy against MES compared with RTG ([1]; listed as K31): higher than that of RTG; efficacy against MES compared with RTG ([1]; listed as k41): superior to that of RTG; bioavailability ([2]; male, mouse, plasma): 91.9%; AUC0-t [2, 10]: 1680 ng·h/g; AUC0-∞ [2, 10]: 1684 ng·h/g; P.I (Protective index)=TD50/ED50 [3]: 21.54
3 | C#CCN(Cc1ccc(F)cc1)c1cc(C)c(NC(=O)OC)c(C)c1.Cl [K43•HCl, methyl 4-(N-parafluorobenzyl-N-propargyl-amino)-2,6-dimethylphenylaminoformate hydrochloride] | 7.2 | – | 1.6 mg/kg | dose dependent protective effect | 1430 ng/g | 15 min | 63.6 min | 77.4 min | 189 ng·h/mL | 350 ng/mL | 15 min | 37.2 min | 184 ng·h/mL | 56.4 min | 334 ng·h/mL | 100 mL/min/kg | 24 min | 326 ng·h/mL | 25.8 min | 2.61 L/kg | bioavailability ([2]; male, mouse, plasma): 22.5%; AUC0-t [2, 10]: 1329 ng·h/g; AUC0-∞ [2, 10]: 1346 ng·h/g; P.I (Protective index)=TD50/ED50 [3]: 95.25
